Test results from the NIST ThermoML archive (doi:10.1021/je034048e).

Key:
[1] = for molar entropy: 101.33 kPa, Small (less than 1 g) adiabatic calorimetry
[2] = Molar enthalpy of transition or fusion; details: Crystal; Adiabatic calorimetry

CCCCCCCC/C=C/CCCCCCCC(=O)OCC(COC(=O)CCCCCCC/C=C/CCCCCCCC)OC(=O)CCCCCCC/C=C/CCCCCCCC [trielaidin]
[1]
Details | Triple point temperature [K] | molar entropy [J/K/mol]
20 K, Crystal | – | 26.56
20 K, Metastable crystal | – | 61.98
25 K, Crystal | – | 44.27
25 K, Metastable crystal | – | 88.54
30 K, Crystal | – | 70.83
30 K, Metastable crystal | – | 115.11
35 K, Crystal | – | 97.4
35 K, Metastable crystal | – | 141.67
40 K, Crystal | – | 132.81
40 K, Metastable crystal | – | 177.09
45 K, Crystal | – | 168.23
45 K, Metastable crystal | – | 212.5
50 K, Crystal | – | 194.8
50 K, Metastable crystal | – | 239.07
55 K, Crystal | – | 230.21
55 K, Metastable crystal | – | 274.48
60 K, Crystal | – | 265.63
60 K, Metastable crystal | – | 309.9
65 K, Crystal | – | 301.05
65 K, Metastable crystal | – | 345.32
70 K, Crystal | – | 327.61
70 K, Metastable crystal | – | 380.74
75 K, Crystal | – | 363.03
75 K, Metastable crystal | – | 416.15
80 K, Crystal | – | 398.44
80 K, Metastable crystal | – | 451.57
85 K, Crystal | – | 433.86
85 K, Metastable crystal | – | 486.99
90 K, Crystal | – | 460.42
90 K, Metastable crystal | – | 513.55
95 K, Crystal | – | 495.84
95 K, Metastable crystal | – | 548.97
100 K, Crystal | – | 531.26
100 K, Metastable crystal | – | 584.39
105 K, Crystal | – | 557.82
105 K, Metastable crystal | – | 619.8
110 K, Crystal | – | 593.24
110 K, Metastable crystal | – | 646.37
120 K, Crystal | – | 646.37
120 K, Metastable crystal | – | 708.35
130 K, Crystal | – | 708.35
130 K, Metastable crystal | – | 770.33
140 K, Crystal | – | 770.33
140 K, Metastable crystal | – | 832.31
150 K, Crystal | – | 823.45
150 K, Metastable crystal | – | 894.29
160 K, Crystal | – | 876.58
160 K, Metastable crystal | – | 947.41
170 K, Crystal | – | 929.7
170 K, Metastable crystal | – | 1009.4
180 K, Crystal | – | 982.83
180 K, Metastable crystal | – | 1062.5
190 K, Crystal | – | 1036
190 K, Metastable crystal | – | 1124.5
200 K, Crystal | – | 1089.1
200 K, Metastable crystal | – | 1177.6
210 K, Crystal | – | 1142.2
210 K, Metastable crystal | – | 1239.6
220 K, Crystal | – | 1186.5
220 K, Metastable crystal | – | 1301.6
230 K, Crystal | – | 1239.6
230 K, Metastable crystal | – | 1363.6
240 K, Crystal | – | 1292.7
240 K, Metastable crystal | – | 1425.5
250 K, Crystal | – | 1337
250 K, Metastable crystal | – | 1487.5
260 K, Crystal | – | 1390.1
260 K, Metastable crystal | – | 1549.5
270 K, Crystal | – | 1443.3
270 K, Metastable crystal | – | 1611.5
280 K, Crystal | – | 1496.4
280 K, Metastable crystal | – | 1673.5
288 K, Crystal | – | 1531.8
288 K, Metastable crystal | – | 1726.6
290 K, Crystal | – | 1549.5
298.15 K, Crystal | – | 1593.8
300 K, Crystal | – | 1602.6
310 K, Crystal | – | 1655.8
314.83 K, Crystal | – | 1673.5
314.83 K, Liquid | – | 2204.7
320 K, Liquid | – | 2213.6
330 K, Liquid | – | 2275.6
Crystal, Adiabatic calorimetry | 314.83 | –

Details | Molar enthalpy of transition or fusion [kcal/mol]
[2] | 37.5
